Where a name gives a salt, the structure may show the parent alone.
How the values were obtained:
[1] = test system: preformed biofilms of test pathogens; experiment: MBEC and FBEC index, 48 h old biofilms, summary over strains; type: cell-based, bacterial and fungal strains; settings: alone: 4% tetrasodium EDTA, 50% ethanol, 100 μg/mL chlorhexidine HCl, 24 hours
Procedure: The evaluation of the biofilm cultivation cell composition was evaluated using an MBEC Assay® biofilm inoculator, consisting of a polystyrene lid with 96 downward-protruding pegs and a corresponding base used to grow biofilms. A standardized inoculum was diluted in an appropriate biofilm growth medium to achieve a viable cell count of 1.5×10^6 CFU/mL of bacterial cells or 5×10^5 CFU/mL of fungal cells. Then, 150 μL of this inoculum was transferred into each appropriate well, and the peg lids were inserted into the microtiter plates. The plates were sealed with Parafilm and were incubated at optimum temperature for 48 h with slight rocking for bacteria and shaking at 200 rpm for fungal strains. After incubation, the peg lid was removed from the base and rinsed twice with sterile phosphate-buffered saline (PBS) for 2 min to remove loosely attached non-sessile cells. Before the antimicrobial challenge, the pegs in column 1 (n=8) were considered as the biofilm growth control; these pegs were removed from the lids, placed into 200 μL of recovery medium, and analyzed for starting biofilm cell numbers as described below. […] After the antimicrobial challenge, the pegs were rinsed twice with sterile PBS for 2 min and placed into a new 96-well plate containing 200 μL of recovery medium. The recovery plates were sealed with Parafilm, and biofilm cells were dislodged from the pegs by sonication for 30 min with a Branson 3510 bath sonicator. The biofilm cells in the recovery medium were serially diluted, and a drop dilution assay was performed to enumerate the viable cells.
In step (4), microtiter plates are incubated at 37 °C for 24 h. then (6), after incubation, the bacterial and fungal cells were dislodged from the pegs into the recovery medium described above.
Three 10-μL aliquots, for a total of 30 μL from each well of recovery medium, were spotted on MH agar plates and incubated for 24 hours at 37 °C. […] The FBEC determination is a modification of the FICI. […]

MRSA ON184 = experiment: MIC and checkerboard (FICI), planktonic cells; type: cell-based, methicillin-resistant S. aureus
Procedure: (§1) The MIC was determined by the micro broth dilution method in 96-well plates. […] A 10 μL containing 1×10^5 bacterial cells or 2×10^3 fungal cells were added to each well. The inoculated plates were covered with a lid, sealed with Parafilm, and incubated for 24 h at 37 °C with slight rocking on a tilting platform shaker. After incubation, the optical density at 600 nm (OD 600) of the cultures in each well was measured using an xMark™ Microplate Absorbance Spectrophotometer (Bio-Rad). The MIC was defined as the lowest concentration of antimicrobial compound at which the culture OD600 values was similar to uninoculated control wells. MBCs and MFCs were determined by transferring 100 μL from each well with no apparent growth onto appropriate agar plates, followed by incubation for 24 h at 37 °C.
(§2) The concentrations of antimicrobials used were based on previously determined MIC values. […] Microtiter plates were incubated at 37 °C for 24 h, and the results were analyzed. Each test was performed in duplicate and included a growth control without the addition of any antimicrobials.

12 test organisms = experiment: MBC/MFC and FMCI, planktonic cells, summary over strains; type: cell-based, bacterial and fungal organisms
Procedure: as §1, §2

Candida albicans SK4b = experiment: MIC and checkerboard (FICI), planktonic cells; type: cell-based
Procedure: as §1, §2

Serratia marcescens SK2 = experiment: MIC and checkerboard (FICI), planktonic cells; type: cell-based
Procedure: as §1, §2

[2] = test system: Staphylococcus aureus ON89; experiment: MIC and checkerboard (FICI), planktonic cells; type: cell-based
Procedure: as §1, §2

[3] = test system: Stenotrophomonas maltophilia ON17; experiment: MIC and checkerboard (FICI), planktonic cells; type: cell-based
Procedure: as §1, §2

Proteus mirabilis ON153 = experiment: MIC and checkerboard (FICI), planktonic cells; type: cell-based
Procedure: as §1, §2

[4] = test system: Pseudomonas aeruginosa SK1; experiment: MIC and checkerboard (FICI), planktonic cells; type: cell-based
Procedure: as §1, §2

[5] = test system: Staphylococcus epidermidis ON170; experiment: MIC and checkerboard (FICI), planktonic cells; type: cell-based
Procedure: as §1, §2

Escherichia coli ON29 = experiment: MIC and checkerboard (FICI), planktonic cells; type: cell-based
Procedure: as §1, §2

C. albicans ON47 = experiment: MIC and checkerboard (FICI), planktonic cells; type: cell-based
Procedure: as §1, §2

S. epidermidis SK9 = experiment: MIC and checkerboard (FICI), planktonic cells; type: cell-based
Procedure: as §1, §2

E. coli SK2 = experiment: MIC and checkerboard (FICI), planktonic cells; type: cell-based
Procedure: as §1, §2

[6] = test system: bacterial and fungal biofilms; experiment: Rapid eradication of 48-h-old biofilms within 2 h exposure; type: cell-based, bacterial and fungal strains; settings: at the MBEC alone, 48-h-old biofilm
Procedure: This example comprises performing biofilm growth as described above. After biofilm formation, control pegs (n=6) were removed and analyzed to determine the starting biofilm cell numbers via the drop dilution method. The 48-h old biofilms on the pegs were exposed to different concentrations of test antimicrobials, dissolved in an appropriate growth medium, for 2 hours to evaluate their efficacy alone and in combination. […] Following treatment, pegs were washed twice with sterile PBS, and the biofilm cells were dislodged into recovery medium and enumerated as described above.

[7] = test system: human erythrocytes and neutrophils; settings: concentrations above 2%, in vitro; cited from earlier work
[8] = cited from earlier work
[9] = overuse; cited from earlier work
[10] = test system: broad range of microbial species; settings: even at high concentrations; cited from earlier work
biofilms = settings: cited from earlier work
S. aureus = settings: cited from earlier work

[H]/N=C(\N/C(=N/[H])NCCCCCCNC(=N)NC(=N)Nc1ccc(Cl)cc1)Nc1ccc(Cl)cc1 [CH, chlorhexidine HCl]
eradication of all established biofilms [1]: able to eradicate all established biofilms
MIC (MRSA ON184; Staphylococcus aureus, MRSA, alone, 24 h, 37 °C, read-out: MIC): 0.2 µg/mL
MIC in combination (MRSA ON184; TE + CH in combination): 0.2 µg/mL
microbicidal activity (12 test organisms): broad-spectrum microbicidal activity
MIC (Candida albicans SK4b; Candida albicans, SK4B, 24 h): 1.6 µg/mL
MIC in combination (Candida albicans SK4b; TE + CH in combination): 0.8 µg/mL
MIC (Serratia marcescens SK2; Serratia marcescens, SK2, 24 h): 12.5 µg/mL
MIC in combination (Serratia marcescens SK2; TE + CH in combination): 1.5 µg/mL
MIC ([2]; Staphylococcus aureus, ON89, alone, 24 h, 37 °C, read-out: MIC): 0.1 µg/mL
MIC in combination ([2]; TE + CH in combination): 0.1 µg/mL
MIC ([3]; Stenotrophomonas maltophilia, ON17, 24 h): 0.8 µg/mL
MIC in combination ([3]; TE + CH in combination): 0.2 µg/mL
MIC (Proteus mirabilis ON153; Proteus mirabilis, ON153, alone, 24 h, 37 °C, read-out: MIC): 50 µg/mL
MIC in combination (Proteus mirabilis ON153; TE + CH in combination): 0.8 µg/mL
MIC ([4]; Pseudomonas aeruginosa, SK1, 24 h): 1.6 µg/mL
MIC in combination ([4]; TE + CH in combination): 0.8 µg/mL
MIC ([5]; Staphylococcus epidermidis, ON170, alone, 24 h, 37 °C, read-out: MIC): 0.1 µg/mL
MIC in combination ([5]; TE + CH in combination): 0.05 µg/mL
MIC (Escherichia coli ON29; Escherichia coli, ON29, alone, 24 h, 37 °C, read-out: MIC): 0.4 µg/mL
MIC in combination (Escherichia coli ON29; TE + CH in combination): 0.2 µg/mL
MIC (C. albicans ON47; Candida albicans, ON47, 24 h): 1.6 µg/mL
MIC in combination (C. albicans ON47; TE + CH in combination): 0.8 µg/mL
MIC (S. epidermidis SK9; Staphylococcus epidermidis, SK9, alone, 24 h, 37 °C, read-out: MIC): 0.1 µg/mL
MIC in combination (S. epidermidis SK9; TE + CH in combination): 0.025 µg/mL
MIC (E. coli SK2; Escherichia coli, SK2, 24 h): 0.4 µg/mL
MIC in combination (E. coli SK2; TE + CH in combination): 0.1 µg/mL
biofilm eradication [6]: failed to eradicate the preformed biofilms

[H]/N=C(\N/C(=N/[H])NCCCCCCNC(=N)NC(=N)Nc1ccc(Cl)cc1)Nc1ccc(Cl)cc1 [Chlorhexidine, 1,6-bis(4-chloro-phenylbiguanido)hexane]
effect on human erythrocytes and neutrophils [7]: fewer human erythrocytes and neutrophils in vitro
mammalian toxicity ([8]; in vivo): low mammalian toxicity
chemical burns ([8]; infants): cause chemical burns in infants
allergenicity ([8]; perioperative and clinical care settings): significant allergen
reduced susceptibility and cross-resistance [9]: reduced susceptibility from its overuse and a cross-resistance to colistin

O=C(O)CN(CCN(CC(=O)O)CC(=O)O)CC(=O)O [disodium EDTA]
antimicrobial activity alone [10]: not a potent antimicrobial agent (i.e., does not kill cells)

Heparin
inhibition or eradication of biofilms (biofilms): neither of these agents has the potential to inhibit or eradicate biofilms
colonization of catheter surfaces (S. aureus): promote the colonization of S. aureus on catheter surfaces
